Test results taken from publication PMC12777568 (Antimicrobial Agents and Chemotherapy, 2025).

Assay: BIC plasma pharmacokinetics, Phase 1 open-label single-dose DDI study GS-US-380-3909 (B/F/TAF 50/200/25 mg with antacid or mineral supplements)
Assay type: in vivo, human
Settings: for Cmax, reference GLSM: BIC alone (N = 14); for half-life / Vd/F / AUC(0-inf): both sexes, human, plasma, oral; for half-life: BIC T1/2, median (Q1, Q3); for Vd/F: BIC VZ/F; for Vd/F / AUC(0-inf): mean (%CV); for AUC(0-inf): BIC plasma AUCinf
Method: Eligible participants were adult (18–45 years) males and non-pregnant, non-lactating females in good general health at a screening evaluation performed no more than 28 days before the first study dose. […] Full eligibility criteria are available in the supplement. All prescription and over-the-counter medications except vitamins, acetaminophen, ibuprofen, and hormonal contraceptives were not permitted during study participation. Three dosing cohorts were evaluated (Table 1). […] Vitamins and/or other supplements were not permitted on the dosing day. […] Participants received maximum-strength antacid oral suspension (four teaspoons; 20 mL; 1,600 mg aluminum hydroxide/1,600 mg magnesium hydroxide/160 mg simethicone; referred to as “aluminum/magnesium-containing antacid”) on Day 9, calcium carbonate (1,200 mg; 2 × 600 mg tablets) on Day 17, and ferrous fumarate (1 × 324 mg tablet) on Day 25. […] All samples were analyzed within the timeframe determined using frozen stability storage data. […] PK parameters were estimated using Phoenix WinNonlin software (Version 6.4, Pharsight Corporation, Princeton, NJ, USA) using standard noncompartmental analysis methods. […] The estimated 90% CIs were compared to a prespecified lack of DDI boundary of 70%–143%. […] A minimum of 12 evaluable participants in each cohort was calculated to be needed to reject the null hypothesis (i.e., the 90% CI for the GLSM ratio for each PK parameter was outside the prespecified boundary) with ≥90% power.

[1] = Cohort 1 fasted, B/F/TAF + calcium carbonate simultaneous, N = 14
[2] = Cohort 1 fasted, B/F/TAF alone, N = 14
[3] = Cohort 1 fasted, simultaneous aluminum/magnesium-containing antacid
[4] = Cohort 1 fasted, simultaneous calcium carbonate
[5] = Cohort 1 fasted, simultaneous ferrous fumarate
[6] = Cohort 2 fasted, B/F/TAF 2 hours after aluminum/magnesium-containing antacid
[7] = Cohort 2 fasted, B/F/TAF 2 hours after aluminum/magnesium-containing antacid, N = 13
[8] = Cohort 2 fasted, B/F/TAF 2 hours before aluminum/magnesium-containing antacid, N = 13
[9] = Cohort 2 fasted, B/F/TAF alone, N = 14
[10] = Cohort 3, B/F/TAF alone (fasted), N = 14
[11] = Cohort 3 fed, B/F/TAF + aluminum/magnesium-containing antacid simultaneous, N = 14
[12] = Cohort 3 fed, simultaneous aluminum/magnesium-containing antacid
[13] = Cohort 1 fasted, B/F/TAF + aluminum/magnesium-containing antacid simultaneous, N = 14
[14] = Cohort 1 fasted, B/F/TAF + ferrous fumarate simultaneous, N = 14
[15] = Cohort 3 fed, B/F/TAF + ferrous fumarate simultaneous, N = 14

O=C(NCc1c(F)cc(F)cc1F)c1cn2c(c(O)c1=O)C(=O)N1[C@H]3CC[C@H](C3)O[C@@H]1C2 [BIC, bictegravir]
BIC T1/2, median (Q1, Q3) [1]: 21.0 (17.6, 25.0) h
BIC plasma Tmax, median (Q1, Q3) [1]: 1.8 (1.5, 4.0) h
BIC plasma AUCinf, mean (%CV) [2]: 121.9 (24.4) µg*h/mL
Cmax, reference GLSM (Cohort 1 fasted): 5540 ng/mL
Delay of median Tmax compared with B/F/TAF alone [3]: 1 h
Increase in mean BIC CL/F compared with B/F/TAF alone [3]: 404%
Increase in mean BIC Vz/F compared with B/F/TAF alone [3]: 421%
Reduction in BIC AUCinf compared with B/F/TAF alone [3]: 79%
Reduction in BIC C24 compared with B/F/TAF alone [3]: 78%
Reduction in BIC Cmax compared with B/F/TAF alone [3]: 80%
Increase in mean BIC CL/F compared with B/F/TAF alone [4]: 56%
Increase in mean BIC Vz/F compared with B/F/TAF alone [4]: 84%
Reduction in BIC AUCinf compared with B/F/TAF alone [4]: 33%
Reduction in BIC C24 compared with B/F/TAF alone [4]: 35%
Reduction in BIC Cmax compared with B/F/TAF alone [4]: 42%
Delay of median Tmax compared with B/F/TAF alone [5]: 1.5 h
Increase in mean BIC CL/F compared with B/F/TAF alone [5]: 174%
Increase in mean BIC Vz/F compared with B/F/TAF alone [5]: 216%
Reduction in BIC AUCinf compared with B/F/TAF alone [5]: 63%
Reduction in BIC C24 compared with B/F/TAF alone [5]: 63%
Reduction in BIC Cmax compared with B/F/TAF alone [5]: 71%
Cmax, test GLSM (Cohort 2 fasted, B/F/TAF 2 h before aluminum/magnesium-containing antacid, N = 14): 5460 ng/mL
Decrease in BIC AUCinf compared with B/F/TAF alone [6]: 52%
Decrease in BIC C24 compared with B/F/TAF alone [6]: 53%
Decrease in BIC Cmax compared with B/F/TAF alone [6]: 59%
Delay of median Tmax compared with B/F/TAF alone [6]: 1 h
Increase in mean BIC CL/F compared with B/F/TAF alone [6]: 124%
Increase in mean BIC VZ/F compared with B/F/TAF alone [6]: 180%
BIC plasma Tmax, median (Q1, Q3) [7]: 2.0 (1.5, 3.0) h
Delay of median Tmax compared with B/F/TAF alone (Cohort 2 fasted, B/F/TAF 2 hours before aluminum/magnesium-containing antacid): 1.5 h
BIC plasma Tmax, median (Q1, Q3) [8]: 1.5 (1.5, 2.0) h
BIC T1/2, median (Q1, Q3) [9]: 20.8 (16.5, 22.8) h
BIC plasma Tmax, median (Q1, Q3) [9]: 3.0 (2.0, 3.0) h
BIC T1/2, median (Q1, Q3) [10]: 18.0 (17.5, 19.9) h
BIC plasma Tmax, median (Q1, Q3) [10]: 1.5 (1.5, 2.0) h
Cmax, reference GLSM (Cohort 3, fasted): 4540 ng/mL
BIC T1/2, median (Q1, Q3) [11]: 17.9 (16.9, 20.2) h
Decrease in BIC AUCinf compared with B/F/TAF alone under fasted conditions [12]: 47%
Decrease in BIC C24 compared with B/F/TAF alone under fasted conditions [12]: 44%
Decrease in BIC Cmax compared with B/F/TAF alone under fasted conditions [12]: 49%
Delay of median Tmax compared with B/F/TAF alone under fasted conditions [12]: 2 h
Increase in mean BIC CL/F compared with B/F/TAF alone under fasted conditions [12]: 89%
Increase in mean BIC Vz/F compared with B/F/TAF alone under fasted conditions [12]: 89%
Delay of median Tmax compared with B/F/TAF alone under fasted conditions (Cohort 3 fed, simultaneous calcium carbonate): 2 h
Delay of median Tmax compared with B/F/TAF alone under fasted conditions (Cohort 3 fed, simultaneous ferrous fumarate): 2.5 h
half-life [13]: 20.2 h
half-life [14]: 21.9 h
half-life [2]: 18.9 h
half-life [7]: 24.2 h
half-life [8]: 21.8 h
half-life (Cohort 3 fed, B/F/TAF + calcium carbonate simultaneous, N = 14): 18.9 h
half-life [15]: 19.3 h
Vd/F [13]: 61.4 L
Vd/F [1]: 21.7 L
Vd/F [14]: 37.3 L
Vd/F [2]: 11.8 L
Vd/F [7]: 31.2 L
Vd/F [8]: 14.4 L
Vd/F [9]: 11.2 L
Vd/F [11]: 29.1 L
Vd/F [15]: 19.3 L
AUC(0-inf) [13]: 28000 ng·h/mL
AUC(0-inf) [1]: 85000 ng·h/mL
AUC(0-inf) [14]: 46100 ng·h/mL
AUC(0-inf) [7]: 67700 ng·h/mL
AUC(0-inf) [8]: 116000 ng·h/mL
AUC(0-inf) [9]: 133000 ng·h/mL
